According to BigSolDB 2.1:

SMILES: CC(C)Oc1ccc2c(=O)c(-c3ccccc3)coc2c1
- solubility (mole fraction) (in DMAc, 278.15 K): 0.0395
- solubility (mole fraction) (in DMAc, 283.15 K): 0.0454
- solubility (mole fraction) (in DMAc, 288.15 K): 0.0534
- solubility (mole fraction) (in DMAc, 293.15 K): 0.062
- solubility (mole fraction) (in DMAc, 298.15 K): 0.0721
- solubility (mole fraction) (in DMAc, 303.15 K): 0.0841
- solubility (mole fraction) (in DMAc, 308.15 K): 0.0981
- solubility (mole fraction) (in DMAc, 313.15 K): 0.113
- solubility (mole fraction) (in DMAc, 318.15 K): 0.133
- solubility (mole fraction) (in DMAc, 323.15 K): 0.152
- solubility (mole fraction) (in DMF, 278.15 K): 0.0245
- solubility (mole fraction) (in DMF, 283.15 K): 0.0301
- solubility (mole fraction) (in DMF, 288.15 K): 0.0352
- solubility (mole fraction) (in DMF, 293.15 K): 0.0431
- solubility (mole fraction) (in DMF, 298.15 K): 0.0506
- solubility (mole fraction) (in DMF, 303.15 K): 0.0622
- solubility (mole fraction) (in DMF, 308.15 K): 0.0718
- solubility (mole fraction) (in DMF, 313.15 K): 0.0884
- solubility (mole fraction) (in DMF, 318.15 K): 0.103
- solubility (mole fraction) (in DMF, 323.15 K): 0.126
- solubility (mole fraction) (in acetone, 278.15 K): 0.00852
- solubility (mole fraction) (in acetone, 283.15 K): 0.0102
- solubility (mole fraction) (in acetone, 288.15 K): 0.0128
- solubility (mole fraction) (in acetone, 293.15 K): 0.0157
- solubility (mole fraction) (in acetone, 298.15 K): 0.0193
- solubility (mole fraction) (in acetone, 303.15 K): 0.0241
- solubility (mole fraction) (in acetone, 308.15 K): 0.0291
- solubility (mole fraction) (in acetone, 313.15 K): 0.0363
- solubility (mole fraction) (in acetone, 318.15 K): 0.0441
- solubility (mole fraction) (in acetone, 323.15 K): 0.056
- solubility (mole fraction) (in acetonitrile, 278.15 K): 0.00246
- solubility (mole fraction) (in acetonitrile, 283.15 K): 0.00336
- solubility (mole fraction) (in acetonitrile, 288.15 K): 0.00441
- solubility (mole fraction) (in acetonitrile, 293.15 K): 0.0056
- solubility (mole fraction) (in acetonitrile, 298.15 K): 0.00731
- solubility (mole fraction) (in acetonitrile, 303.15 K): 0.00942
- solubility (mole fraction) (in acetonitrile, 308.15 K): 0.0122
- solubility (mole fraction) (in acetonitrile, 313.15 K): 0.0159
- solubility (mole fraction) (in acetonitrile, 318.15 K): 0.0212
- solubility (mole fraction) (in acetonitrile, 323.15 K): 0.0282
- solubility (mole fraction) (in dichloromethane, 278.15 K): 0.0667
- solubility (mole fraction) (in dichloromethane, 283.15 K): 0.0735
- solubility (mole fraction) (in dichloromethane, 288.15 K): 0.0809
- solubility (mole fraction) (in dichloromethane, 293.15 K): 0.0903
- solubility (mole fraction) (in dichloromethane, 298.15 K): 0.0988
- solubility (mole fraction) (in dichloromethane, 303.15 K): 0.108
- solubility (mole fraction) (in dichloromethane, 308.15 K): 0.119
- solubility (mole fraction) (in ethanol, 278.15 K): 0.000992
- solubility (mole fraction) (in ethanol, 283.15 K): 0.00141
- solubility (mole fraction) (in ethanol, 288.15 K): 0.00187
- solubility (mole fraction) (in ethanol, 293.15 K): 0.00239
- solubility (mole fraction) (in ethanol, 298.15 K): 0.00301
- solubility (mole fraction) (in ethanol, 303.15 K): 0.00409
- solubility (mole fraction) (in ethanol, 308.15 K): 0.00521
- solubility (mole fraction) (in ethanol, 313.15 K): 0.00696
- solubility (mole fraction) (in ethanol, 318.15 K): 0.00872
- solubility (mole fraction) (in ethanol, 323.15 K): 0.012
- solubility (mole fraction) (in methanol, 278.15 K): 0.000841
- solubility (mole fraction) (in methanol, 283.15 K): 0.00109
- solubility (mole fraction) (in methanol, 288.15 K): 0.0015
- solubility (mole fraction) (in methanol, 293.15 K): 0.00195
- solubility (mole fraction) (in methanol, 298.15 K): 0.00244
- solubility (mole fraction) (in methanol, 303.15 K): 0.0032
- solubility (mole fraction) (in methanol, 308.15 K): 0.00391
- solubility (mole fraction) (in methanol, 313.15 K): 0.00505
- solubility (mole fraction) (in methanol, 318.15 K): 0.00623
- solubility (mole fraction) (in methanol, 323.15 K): 0.00823
- solubility (mole fraction) (in methyl acetate, 278.15 K): 0.00948
- solubility (mole fraction) (in methyl acetate, 283.15 K): 0.0116
- solubility (mole fraction) (in methyl acetate, 288.15 K): 0.0142
- solubility (mole fraction) (in methyl acetate, 293.15 K): 0.0174
- solubility (mole fraction) (in methyl acetate, 298.15 K): 0.0213
- solubility (mole fraction) (in methyl acetate, 303.15 K): 0.0264
- solubility (mole fraction) (in methyl acetate, 308.15 K): 0.0321
- solubility (mole fraction) (in methyl acetate, 313.15 K): 0.039
- solubility (mole fraction) (in methyl acetate, 318.15 K): 0.0479
- solubility (mole fraction) (in methyl acetate, 323.15 K): 0.059
- solubility (mole fraction) (in n-butanol, 278.15 K): 0.00166
- solubility (mole fraction) (in n-butanol, 283.15 K): 0.00215
- solubility (mole fraction) (in n-butanol, 288.15 K): 0.00294
- solubility (mole fraction) (in n-butanol, 293.15 K): 0.00375
- solubility (mole fraction) (in n-butanol, 298.15 K): 0.00494
- solubility (mole fraction) (in n-butanol, 303.15 K): 0.00645
- solubility (mole fraction) (in n-butanol, 308.15 K): 0.00842
- solubility (mole fraction) (in n-butanol, 313.15 K): 0.0113
- solubility (mole fraction) (in n-butanol, 318.15 K): 0.0153
- solubility (mole fraction) (in n-butanol, 323.15 K): 0.0195
- solubility (mole fraction) (in n-pentanol, 278.15 K): 0.00192
- solubility (mole fraction) (in n-pentanol, 283.15 K): 0.00239
- solubility (mole fraction) (in n-pentanol, 288.15 K): 0.00338
- solubility (mole fraction) (in n-pentanol, 293.15 K): 0.00461
- solubility (mole fraction) (in n-pentanol, 298.15 K): 0.00597
- solubility (mole fraction) (in n-pentanol, 303.15 K): 0.0073
- solubility (mole fraction) (in n-pentanol, 308.15 K): 0.00992
- solubility (mole fraction) (in n-pentanol, 313.15 K): 0.0125
- solubility (mole fraction) (in n-pentanol, 318.15 K): 0.0165
- solubility (mole fraction) (in n-pentanol, 323.15 K): 0.0221
- solubility (mole fraction) (in n-propanol, 278.15 K): 0.00135
- solubility (mole fraction) (in n-propanol, 283.15 K): 0.00172
- solubility (mole fraction) (in n-propanol, 288.15 K): 0.00223
- solubility (mole fraction) (in n-propanol, 293.15 K): 0.00307
- solubility (mole fraction) (in n-propanol, 298.15 K): 0.00399
- solubility (mole fraction) (in n-propanol, 303.15 K): 0.00509
- solubility (mole fraction) (in n-propanol, 308.15 K): 0.00671
- solubility (mole fraction) (in n-propanol, 313.15 K): 0.00877
- solubility (mole fraction) (in n-propanol, 318.15 K): 0.0113
- solubility (mole fraction) (in n-propanol, 323.15 K): 0.0147
- solubility (mole fraction) (in toluene, 278.15 K): 0.0114
- solubility (mole fraction) (in toluene, 283.15 K): 0.0143
- solubility (mole fraction) (in toluene, 288.15 K): 0.0174
- solubility (mole fraction) (in toluene, 293.15 K): 0.022
- solubility (mole fraction) (in toluene, 298.15 K): 0.0271
- solubility (mole fraction) (in toluene, 303.15 K): 0.0338
- solubility (mole fraction) (in toluene, 308.15 K): 0.0417
- solubility (mole fraction) (in toluene, 313.15 K): 0.0523
- solubility (mole fraction) (in toluene, 318.15 K): 0.0638
- solubility (mole fraction) (in toluene, 323.15 K): 0.0802
